Source: patent publication US8962263B2, “Methods and compositions for detecting the activation state of multiple proteins in single cells” (The Board of Trustees of the Leland Stanford Junior …, priority 2001, dated 2015)

Assays:
Jurkat T cells = experiment: anti-Fas induced apoptosis in ICAM-2 crosslinked Jurkat cells, annexin-V binding assay; type: cell-based, human; details: inhibitor 10 μM 1 hour, anti-Fas 50 ng/ml 8 hours
Protocol: A) ICAM-2, crosslinking induced AKT activity in Jurkat T cells and subsequent phosphorylation of GSK3, FKHR, and AFX as a function of time. Serum starved Jurkat T cells were incubated with either isotype control or anti-human ICAM-2, (10, μg/ml) for the indicated times. AKT kinase activity was determined as described. Immunoblot analysis verified AKT dual phosphorylation, FKHR and GSK3 phosphorylation, and BAD phosphorylation as a function of ICAM-2, crosslinking. B) ICAM-2 crosslinking induces AKT activity in BaF3, pre-B cells. […] ICAM-2, was crosslinked on 106, Jurkat T cells using an ICAM-2, mAb (10, μg/ml) 30, minutes prior to treatment with staurosporine (+) or DMSO vehicle (−). Apoptosis was determined by flow cytometry using annexin-V binding assay. […] Cells were assessed for apoptosis by annexin-V binding assay. […]
Apoptosis was determined either by counting pyknotic nuclei, annexin-V binding by flow cytometry, or TUNEL BrdU staining by flow cytometry as indicated. Apoptosis was induced either by staurosporine (1 μm), treatment with anti-mouse Fas (5 μq/ml Santa Cruz Biotechnology (SCB), anti-human Fas ([…]) as indicated in appropriate experiment, IL-3 withdrawal-(24 hrs) or as indicated. For pyknolic nuclei count, NIH3T3 cells were grown on glass coverslips and assayed for apoptosis. Suspension cells were analyzed by nuclear staining with 25 μM acridine orange/25 μm ethidium bromide or 5 μg/ml Hoechst 33342 (Molecular Probes, Eugene, Oreg.). Apoptosis was identified by the presence of characteristic pyknotic nuclei as described (Jacobson and Raff, 1995). At least 5 individual fields were photographed and counted using a Zeiss axioscope fluorescence microscope. […] The cells were trypsinized and viable cells counted following trypan blue staining. Untreated cells were counted at the time of treatment. % survival represents (number of viable cells post-treatment)/(number of viable cells pretreatment). […] Flow cytometry analysis was performed on a BD FACSCalibur machine with CELLQuest and analyzed using FlowJo software (Tree Star).

ezrin = experiment: phosphotyrosine-protein based elisa for ezrin tyrosine phosphorylation upon ICAM-2 ligation; type: cell-based, human; details: Jurkat cells
Protocol: A) Expression levels of ICAM-2, vary across cell lines of different origins. Quantitative flow cytometry analysis was performed to assess the number of ICAM-2 surface molecules across transformed and untransformed fibroblasts, lymphocytes of T-cell and different B-cell differentiation states and myeloid lineages (see Material and Methods for elaboration). The number of surface molecules/cell is expressed as the mean (bar)+/−SD of triplicate experiments. B) Crosslinking of endogenous ICAM-2, induces ezrin tyrosine phosphorylation and enhanced ICAM-2, interaction. Jurkat cells were crosslinked for ICAM-2 using monoclonal antibody for the indicated times and subjected to immunoprecipitation/immunoblotting as indicated. C) Inhibition of ezrin phosphotyrosine by chemical inhibitors of src and Rho-dependent kinases. D) Ezrin phosphorylation and enhanced interaction with the p85, subunit of PI3K as a function of ICAM-2. Determined as described above. E) PDK-1, activity as a function of ICAM-2, ligation, as described above). F) PI3K and AKT localize to the membrane as a function of ICAM-2, ligation. Membrane/cytosolic fractionation was performed on ICAM-2, ligated Jurkat cells as a function of time and subjected to immunoblotting for PI3K and AKT.
In order to identify upstream kineses capable of tyrosine phosphorylating ezrin as a function of ICAM-2 ligation, we developed a phosphotyrosine-protein based elisa to screen for the inhibition of ezrin tyrosine phosphorylation in vivo by various known inhibitors of protein kineses (Perez and Nolan, manuscript in preparation). […] Given the design of the screen to detect tyrosine residue phosphorylation, we speculate that activation of Rho-dependent processes may be a prerequisite for ezrin to be tyrosine phosphorylated by src (elaborated below).

p44/42 MAPK = experiment: intracellular phospho-p44/42 MAPK by flow cytometry in ICAM-2 treated Jurkat cells; type: cell-based, human; details: chemical agents 10 μM, EDTA 1 mM; mAbs titrated prior to ICAM-2
Excerpt: A) Mean fluorescent intensity values (MFI) of ICAM-2-FITC (adhesion) and mAb24-Alexa633, (LFA-1, activation) in treated Jurkat cells (as above). Control unstimulated and/or compound pretreated values were subtracted. B) Top panel: Intracellular phospho-p44/42, MAPK detection as a function of ICAM-2, dose in Jurkat cells by flow cytometry (see Material and Methods). Mean fluorescent intensity values (MFI) were plotted±standard deviation (SD). Bottom panel: ICAM-2, treated Jurkat cells were stained for intracellular phospho-p44/42, MAPK as described above. mAbs to β2, and αL, integrins (10, μg/ml, 10, minutes) were titrated prior to ICAM-2, treatment as indicated and plotted for MFI±SD. C) ICAM-2, induced p44/42, MAPK activity is blocked by β2, and αL, integrin antibodies as determined by a p44/42 MAPK kinase assay. Conditions for induction and inhibition are as described above. Recombinant active p44/42, MAPK served as an internal positive control (denoted by “+”). D) Inhibition and activation profile for intracellular phospho-p44/42, by flow cytometry in the presences of chemical agents (10, μM), EDTA (1, mM), or PMA, ionomycin and ICAM-2, stimulus (as indicated above). MFI values±SD are plotted.
(§1) Intracellular and extracellular staining was performed as described (Perez and Nolan, 2002). Intracellular probes for active kinases were made by conjugating phospho-specific antibodies to the ALEXA FLUOR® dye series as described and used in phospho-protein optimized conditions (Perez and Nolan, 2002). Kinetic analyses was performed by direct application of fixation buffer in time synchronized 96-wells maintained at 37° C. Intracellular actin and microtubule staining was performed using phalloidin-Alexa633 and taxol-Alexa546 dyes (Molecular Probes). Adhesion and clustering assays were performed using ICAM-2-FITC as described in text. LFA-1 activation was assessed by either mAb24-Alexa633 or mAb24-Alexa546 conjugate, surface stained at 37° C. Flow cytometry data are representative of 3 independent experiments of 10^6 cells/sample. 10-50,000 events were collected and manually calibrated on a FACSCalibur™ machine. Data plotted in bar graph format is expressed as geometric mean fluorescence intensity (MFI) and normalized for isotype controls. Log ratios are defined as the MFI of stimulus to the MFI of unstimulated cells. Data was analyzed using Flowjo™ software (Treestar).

cell surface LFA-1 = molecular target: T1, cell surface LFA-1 (Homo sapiens, UniProt P20701); experiment: ICAM-2-FITC surface binding on Jurkat cells by flow cytometry (single cell binding measurements); details: cytochalisin D treated Jurkat cells
T1 construct: within the physiological context of cell surface LFA-1; endogenous in cells; host or cells: Jurkat T cells
Protocol: A) Purified human ICAM-2, from retrovirally transduced NIH3T3, (see materials and methods) was tested for purity, size, and aggregate formation by native gel electrophoresis and gel filtration. Analysis of purified ICAM-2, from two different preps and ICAM2-FC from NSO cells. Molecular weight was calculated using relative distance migration from a molecular weight standard. Concentration was determined using serial dilutions of BSA as a standard. […] B) ICAM-2, ligand binding to cell surface as a function of time. 5×10^6, unstimulated and PMA stimulated (1, μg/ml, 30, min) Jurkat T cells were incubated with ICAM-2-FITC or LFA-1-FITC antibody (1, μg/ml) and subjected to time dependent flow cytometry. Mean fluorescence intensity was plotted per time of a gated homogenous cell population. Flow rate was maintained at 200-300, cells/second, with fluorescence intensity values acquired at 10, millisecond intervals for 1200, seconds. C) Flow cytometric analysis of ICAM-2-FITC and a-LFA-1-FITC surface binding on cytochalisin D treated (10, μM, 30, min) Jurkat cells at 37° C. and 4° C. D) Curve fit analysis of ICAM-2-FITC binding per 10^4, cells. Jurkat cells were incubated with ICAM-2-FITC at 37° C. for 30, min at indicated concentrations in 50, μL volume. Cells were washed 1×, and analyzed for mean fluorescent intensity (MFI) of 10^4, cells. Percent ICAM-2-FITC bound was calculated from the following equation: 100×[(MFI[×]−MFIunstained)/(MFI[saturated]−MFIunstained)] where [×]=ICAM-2-FITC concentration and [saturated]=concentration that saturated binding. Values were fit to the equation Y=m1*M0/(m2+M0) (see materials and methods).
Full length ICAM2 cDNA was obtained from Jurkat cells and cloned into retroviral vector PBM-Z-IN at the BamHI/Sal1 site as described (Perez et al., 2002). Human ICAM-2 was overexpressed in NIH3T3 cells by retroviral infection and harvested by immunoaffinity chromatography. ICAM-2 was affinity purified using a two step lysing procedure and subsequent purification on an anti-ICAM-2 solid support. […] Batch lysate of harvested supernatant was performed (4° C., for 2 hrs), and washed 4 times in buffer C (0.1% Tween-20, PBS pH 7.4). ICAM-2 protein was eluted by 4.5 M NaCl (in Tris pH 6.8), dialyzed overnight (in PBS pH 7.4, 0.001% azide, 0.01% glycerol, 4° C.), concentrated using size exclusion spin chromatography and stabilized using 0.01% glycerol. Anti-ICAM-2 solid support was re-equilibrated in buffer C, stored in 0.001% thimerosol and re-used up to 3 times. Purity was >98% as assessed by coomasie gel. […] Gel imaging was performed on a VersaDoc machine (Biorad) and analyzed using Quantity One quantitation software (Biorad). […]

LFA-1 = LFA-1 activation by mAb24-Alexa633 staining, flow cytometry; type: cell-based, human; details: Jurkat cells; agents 10 μM 30 min, PMA 1 μg/ml, prior to ICAM-2 10 μg/ml 30 min
Protocol: A) Confocal microscopy of actin and microtubule architecture upon ICAM-2, stimulus (10, μg/ml, 30, min) in Jurkat cells. Actin was stained by phalloidin-alexa633, and tubulin by taxol-alexa546. Inserts display enlarged cell image of representative treatment B) Flow cytometric staining for actin and microtubules as described above. C) Left: Fluorescence topography analysis of ICAM-2-FITC (1 μg/ml, time as indicated) surface distribution. Intensity color gradient depicts high and low fluorescent intensity values. Right: Confocal microscopy of ICAM-2-FITC surface binding (10 μg/ml, 30, min) and anti-β2-alexa568, (clone CTB104). D) Staining for ICAM-2-FITC surface binding (fluorescence intensity) and surface distribution (fluorescence pulse) in cytochalisin D treated Jurkat cells at 37° C. and 4° C. by flow cytometry. E) Values for ICAM-2-FITC fluorescence intensity per time-of-flight per cell as described in text. F) Flow cytometric staining for LFA-1 activation by mAb24-alexa633. Stimuli as indicated (10, μM, 30, min), PMA (1, μg/ml) prior to ICAM-2, stimulation (10, μg/ml, 30, min). Staining was performed at 37° C. G) Mean fluorescence intensity (MFI) values of mAb24-633, and ICAM-2, cluster values, computed as described above, as a function of time.
as §1

T1 sequence (P20701 26-1170): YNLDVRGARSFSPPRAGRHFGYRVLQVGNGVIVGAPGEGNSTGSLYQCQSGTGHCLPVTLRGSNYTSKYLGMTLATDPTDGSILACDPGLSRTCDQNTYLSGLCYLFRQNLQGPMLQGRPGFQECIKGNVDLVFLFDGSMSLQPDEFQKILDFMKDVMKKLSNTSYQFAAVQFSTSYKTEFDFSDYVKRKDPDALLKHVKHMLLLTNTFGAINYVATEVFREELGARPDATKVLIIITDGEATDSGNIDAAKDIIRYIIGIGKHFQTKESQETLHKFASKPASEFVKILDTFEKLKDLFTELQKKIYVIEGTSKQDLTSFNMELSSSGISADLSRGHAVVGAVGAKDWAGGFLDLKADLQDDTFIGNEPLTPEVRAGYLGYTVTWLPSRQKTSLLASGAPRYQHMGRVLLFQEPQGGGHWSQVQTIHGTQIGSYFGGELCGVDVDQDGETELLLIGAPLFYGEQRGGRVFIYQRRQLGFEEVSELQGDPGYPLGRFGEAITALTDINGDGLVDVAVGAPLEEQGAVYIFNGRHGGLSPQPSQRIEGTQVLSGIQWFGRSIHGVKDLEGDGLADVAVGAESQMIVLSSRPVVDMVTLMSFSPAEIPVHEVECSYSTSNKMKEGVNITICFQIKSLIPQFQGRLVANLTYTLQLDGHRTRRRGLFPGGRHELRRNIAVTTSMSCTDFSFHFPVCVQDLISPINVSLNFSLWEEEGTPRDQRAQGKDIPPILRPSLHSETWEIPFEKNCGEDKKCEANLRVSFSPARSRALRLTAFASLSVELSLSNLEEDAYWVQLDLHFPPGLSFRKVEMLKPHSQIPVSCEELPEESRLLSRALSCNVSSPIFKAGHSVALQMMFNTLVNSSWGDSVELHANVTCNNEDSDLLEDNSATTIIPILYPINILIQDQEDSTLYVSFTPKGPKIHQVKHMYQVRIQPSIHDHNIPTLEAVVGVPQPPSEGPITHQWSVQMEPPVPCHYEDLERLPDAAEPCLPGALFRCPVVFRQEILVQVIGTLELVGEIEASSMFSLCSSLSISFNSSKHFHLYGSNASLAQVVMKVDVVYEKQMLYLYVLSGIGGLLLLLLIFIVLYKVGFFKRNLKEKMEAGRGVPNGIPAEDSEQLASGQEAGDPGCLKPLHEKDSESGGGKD
T1 sequence (P05107 23-769 partner): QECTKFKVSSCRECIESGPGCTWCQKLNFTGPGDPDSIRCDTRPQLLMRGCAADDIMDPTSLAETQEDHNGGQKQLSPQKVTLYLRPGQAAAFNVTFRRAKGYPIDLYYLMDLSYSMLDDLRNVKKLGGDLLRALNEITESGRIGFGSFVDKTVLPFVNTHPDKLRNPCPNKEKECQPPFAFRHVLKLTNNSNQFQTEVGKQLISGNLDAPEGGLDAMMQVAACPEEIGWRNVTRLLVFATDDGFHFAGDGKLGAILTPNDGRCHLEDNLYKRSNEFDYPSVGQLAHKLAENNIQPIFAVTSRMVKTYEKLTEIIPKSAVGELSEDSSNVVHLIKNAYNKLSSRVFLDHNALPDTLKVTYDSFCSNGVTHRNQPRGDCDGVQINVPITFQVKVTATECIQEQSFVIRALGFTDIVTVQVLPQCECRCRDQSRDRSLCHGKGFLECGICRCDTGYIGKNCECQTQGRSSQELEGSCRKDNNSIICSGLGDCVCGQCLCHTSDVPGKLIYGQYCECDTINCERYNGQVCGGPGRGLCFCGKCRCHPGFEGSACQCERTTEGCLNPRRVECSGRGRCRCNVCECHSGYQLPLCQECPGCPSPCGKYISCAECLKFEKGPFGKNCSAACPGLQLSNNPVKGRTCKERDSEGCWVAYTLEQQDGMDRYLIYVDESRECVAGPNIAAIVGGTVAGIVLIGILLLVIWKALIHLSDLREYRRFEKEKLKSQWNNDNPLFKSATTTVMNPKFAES
Protocol for CD19+ human B cells: Apoptosis was measured by annexin-V binding detected by flow cytometry, and gated for CD19+, cells. […] Apoptosis was measured by annexin-V binding assay.
Antibody cross-linking experiments were performed using mAbs to anti-ICAM-1, anti-ICAM-2, anti-ICAM-3, anti-CD43, or anti-CD44 that recognizes the N-terminal region (extracellular domain) at 10 μg/ml. Spin dialysis (Biorad) was used for buffer exchange of azide containing antibodies (0.01%) to phosphate buffered saline buffer pH 7.4. Anti-mouse IgG (Sigma) was used as a control antibody in cross-linking experiments. 1×10^6 Jurkat, 1×10^6 BaF3, or 1×10^7 PBMC cells were serum starved for 4 hours respectively (except PBMC). Cells were incubated with either mAb (10 μg/ml) or mouse IgG (10 μg/ml) at 37° C. for the indicated time. Time points began post serum starvation to attenuate most of the signaling pathways or as indicated. […] Cells extracts were taken and subjected to either immunoprecipitation or immunoblotting were appropriate. Primary cells were subjected to apoptotic treatment followed by preparation for flow cytometry. GTPγS was made cell permeant by pre-incubating compound with Fugene (Roche Biochemicals) in a 1:4 molar ratio for 30 minutes at 25° C. prior to being applied to cells.

| Compound | ICAM-2 crosslinking protection against Fas induced apoptosis (Jurkat T cells) | apoptosis in primary cells on incubation with compound (CD19+ human B cells) | tyrosine phosphorylation of ezrin (ezrin) | effect on ICAM-2 induced p44/42 MAPK phosphorylation (p44/42 MAPK) | LFA-1 receptor clustering and ICAM-2 binding (cell surface LFA-1) | LFA-1 activation (mAb24 binding) (LFA-1) |
| --- | --- | --- | --- | --- | --- | --- |
| Nc1nc2c(ncn2[C@@H]2O[C@H](COP(=O)(O)OP(=O)(O)OP(O)(O)=S)[C@@H](O)[C@H]2O)c(=O)[nH]1 [GTPγS] | abrogated | induced apoptosis |  |  |  |  |
| CO[C@H]1[C@@H](OC)C[C@H](C)[C@@H](OC)C2=CC(=O)C=C(NC(=O)/C(C)=C/C=C\[C@H](OC)[C@@H](OC(N)=O)/C(C)=C/[C@@H]1C)C2=O [herbimycin A] | abrogated | induced apoptosis | inhibit tyrosine phosphorylation of ezrin | no effect |  |  |
| cytochalisin D |  |  |  | diminished | enhanced LFA-1 receptor clustering and subsequent ICAM-2 binding | attenuated |
